{"source": "patent US12194081B2", "about": "“ARGINASE1 polypeptides” (IO BIOTECH APS, priority 2018, dated 2025)", "key": {"[1]": {"test_system": "PBMCs from cancer patients and healthy donors", "experiment": "in vitro IFNγ ELISPOT of PBMCs after 7 days with peptide and IL-2", "assay_type": "cell-based, human", "experimental": "PBMCs from healthy donors were isolated using density gradient separation over LymphoprepTM (STEMCELL Technologies) and cryopreserved at -150° C. in FBS supplemented with 10% DMSO. PBMCs from cancer patients were isolated from blood sample a minimum of four weeks after the termination of any anti-cancer therapy. The protocol was approved by the Scientific Ethics Committee for The Capital Region of Denmark and conducted in accordance with the provisions of the Declaration of Helsinki. Written informed consent from the patients was obtained before study entry. […] The sequences of the peptides used in these experiments are shown in full below in alignment with each other, and are also set out in the section entitled “Sequences”). Peptides are described by SEQ ID NO, by name, or by reference to the start and end positions of each peptide sequence within the full length sequence of Arginase 1. Each may be used interchangeably. For example, the peptide of SEQ ID NO: 1 may alternatively be referred to by the name ArgLong2, or may alternatively be referred to as […]-206 (given a start position of 169 and end position of 206). The intended reference in each case will be clear from the context. For in vitro ELISPOT, PBMCs from cancer patients and healthy donors were pulsed with 20 μM of Arginase 1-derived peptides and 120 U/ml IL-2 in 24-well plates for 7 days before being used in an ELISPOT assay. The cells were placed in 96-well nitrocellulose ELISPOT plates (MultiScreen MAIP […]; Millipore) pre-coated with IFNγ capture antibody (Mabtech). Arginase peptides added to a final concentration of 5 μM and plates incubated at 37° C. for 14-16 hours. After the incubation the cells were washed off and secondary biotinylated Ab (Mabtech, cat. 3420-6-1000) was added for 2 hours at room temperature. Unbound secondary antibody was washed off and streptavidin conjugated alkaline phosphatase (AP) (Mabtech, cat. 3310-10) was added for 1 hour at room temperature. Unbound conjugated enzyme was washed off and the assay was developed by adding BCIP/NBT substrate (Mabtech, cat. 3650-10). Developed ELISPOT plates were analyzed on CTL ImmunoSpot S6 Ultimate-V analyzer using Immunospot software v5.1. Responses were reported as the difference between average numbers of spots in wells stimulated with Arginase 1 and wells without added peptide."}, "[2]": {"test_system": "MC38 colon adenocarcinoma", "experiment": "Tumour vaccination, MC38 colon adenocarcinoma tumour model", "assay_type": "in vivo, mouse", "settings": "100 μg ArgLong2 with Montanide, days 0, 7, 14; p=0.030 Mixed effects analysis; FIG. 7", "experimental": "(§1) Animals were vaccinated subcutaneously with 100 μg peptide in DMSO/H2O in a 1:1 emulsion with incomplete Montanide ISA 51 VG. Montanide ISA 51 VG+DMSO/H2O served as a control vaccine. For subsequent analysis of the immune response to the ArgLong2 peptide, mice were sacrificed on day 7 and spleen and draining lymph nodes (dLNs) were harvested for ELISPOT setup.\n(§2) Each animal was inoculated subcutaneously into the right flank with 0.5×10^6 syngeneic tumour cells in 100 μl media. Both the syngeneic B16 F10 melanoma cells line and the syngeneic MC38 colon adenocarcinoma cell line were used. Vaccinations were initiated on day 0 and repeated once a week (day 7 and day 14). Peptide and control vaccinations were performed as described above.\n(§3) Tumour growth was monitored and tumours were measured approximately every second day. Tumour volume was calculated at V [mm^3]=L×W^2/2 (where L is the longest diameter and W perpendicular to L). Maximum tumor size before mice were euthanized was 864 mm^3 (L=12 mm, W=12 mm)."}, "B16F10 melanoma": {"test_system": "B16F10 melanoma", "experiment": "Tumour vaccination, B16F10 melanoma tumour model", "assay_type": "in vivo, mouse", "settings": "100 μg ArgLong2 with Montanide, days 0, 7, 14; FIG. 8", "experimental": "as §1, §2, §3"}, "[3]": {"test_system": "CD4+ and CD8+ memory T cells (CD45RO+)", "experiment": "ex vivo IFNγ ELISPOT of sorted memory T cells", "assay_type": "cell-based, human", "experimental": "For in vitro ELISPOT, PBMCs from cancer patients and healthy donors were pulsed with 20 μM of Arginase 1-derived peptides and 120 U/ml IL-2 in 24-well plates for 7 days before being used in an ELISPOT assay. The cells were placed in 96-well nitrocellulose ELISPOT plates (MultiScreen MAIP N45; Millipore) pre-coated with IFNγ capture antibody (Mabtech). Arginase peptides added to a final concentration of 5 μM and plates incubated at 37° C. for 14-16 hours. After the incubation the cells were washed off and secondary biotinylated Ab (Mabtech, cat. 3420-6-1000) was added for 2 hours at room temperature. Unbound secondary antibody was washed off and streptavidin conjugated alkaline phosphatase (AP) (Mabtech, cat. 3310-10) was added for 1 hour at room temperature. Unbound conjugated enzyme was washed off and the assay was developed by adding BCIP/NBT substrate (Mabtech, cat. 3650-10). Developed ELISPOT plates were analyzed on CTL ImmunoSpot S6 Ultimate-V analyzer using Immunospot software v5.1. Responses were reported as the difference between average numbers of spots in wells stimulated with Arginase 1 and wells without added peptide.\nCD4+ and CD8+ memory T cells were sorted from freshly thawed healthy donor or cancer patient PBMC samples using magnetic bead sorting kits: Memory CD4+ T Cell Isolation Kit, human (cat. 130-091-893, Miltenyi Biotec) and CD8+ Memory T Cell Isolation Kit, human (cat. 130-094-412, Miltenyi Biotec). The purity of isolated cells was assessed by staining for CD4-FITC, CD8-PerCP, CD45RO-PE (all from BD Biosciences), dead cells were stained using LIVE/DEAD™ Fixable Near-IR Dead Cell Stain Kit (Invitrogen™, ThermoFisher Scientific).\nTo test that CD4+ and CD8+ memory T cells were sorted from PBMCs of cancer patients and healthy donors that had shown a strong spontaneous immune response ex vivo. […] The purity of memory T cell isolation was confirmed by flow cytometric analysis for CD4+ CD45RO+ and CD8+ CD45RO+ T cells and was determined to be >95%. […] Clear CD8+ memory responses could be detected in 2 healthy donors (see FIG. 4C)."}}}
{"sequence": "ISAKDIVYIGLRDVDPGEHYILKTLGIKYFSMTEVDRL (Peptide fragment of human Arginase 1 (ArgLong2)) [38-mer, positions 169-206 of full length human Arginase 1]", "values": [{"measurement": "responses in IFNγ ELISPOT (in words)", "setting": "[1]; PBMCs from 6 healthy donors, peptide and low dose IL-2 for 1 week, FIG. 1", "value": "superior at stimulating T cell responses"}, {"measurement": "peptide specific spots in IFNγ ELISPOT where too numerous to count (TNTC)", "setting": "[1]; TNTC in six healthy donors and 2 cancer patients, 2.2-5×10^5 PBMCs/well, FIG. 2", "value": "> 500", "unit": "spots"}, {"measurement": "donors with high responses in IFNγ ELISPOT", "setting": "[1]; out of 6 healthy donors, PBMCs stimulated with peptide and low dose IL-2 for 1 week, FIG. 1", "value": 4, "unit": "donors"}, {"measurement": "cancer patients showing responses in IFNγ ELISPOT", "setting": "[1]; out of 16 cancer patients (8 melanoma, 6 multiple myeloma, 1 breast cancer, 1 renal cell carcinoma), strong responses counted for ArgLong2, FIG. 2", "value": 8, "unit": "cancer patients"}, {"measurement": "healthy donors showing responses in IFNγ ELISPOT", "setting": "[1]; out of 19 healthy donors, strong responses counted for ArgLong2, FIG. 2", "value": 14, "unit": "healthy donors"}, {"measurement": "tumour growth vs control vaccination, MC38", "setting": "[2]", "value": "significantly delay tumour growth"}, {"measurement": "tumour growth vs control vaccination, B16", "setting": "B16F10 melanoma", "value": "significantly delay tumour growth"}, {"measurement": "cancer patients with CD4+ memory responses", "setting": "[3]; sorted CD4+ CD45RO+ T cells from 2 cancer patients, FIG. 4B", "value": 2, "unit": "cancer patients"}, {"measurement": "healthy donors with CD4+ memory responses", "setting": "[3]; sorted CD4+ CD45RO+ T cells from 4 healthy donors, FIG. 4B", "value": 3, "unit": "healthy donors"}, {"measurement": "healthy donors with clear CD8+ memory responses", "setting": "[3]; sorted CD8+ CD45RO+ T cells, FIG. 4C", "value": 2, "unit": "healthy donors"}]}
